Series [1] deals with T1, CYP3A4 (Homo sapiens, UniProt P08684). Conditions: cited from earlier work.
Series [2] deals with T2, UGT1A9 (Homo sapiens, UniProt O60656).
T2 sequence (O60656 26-530): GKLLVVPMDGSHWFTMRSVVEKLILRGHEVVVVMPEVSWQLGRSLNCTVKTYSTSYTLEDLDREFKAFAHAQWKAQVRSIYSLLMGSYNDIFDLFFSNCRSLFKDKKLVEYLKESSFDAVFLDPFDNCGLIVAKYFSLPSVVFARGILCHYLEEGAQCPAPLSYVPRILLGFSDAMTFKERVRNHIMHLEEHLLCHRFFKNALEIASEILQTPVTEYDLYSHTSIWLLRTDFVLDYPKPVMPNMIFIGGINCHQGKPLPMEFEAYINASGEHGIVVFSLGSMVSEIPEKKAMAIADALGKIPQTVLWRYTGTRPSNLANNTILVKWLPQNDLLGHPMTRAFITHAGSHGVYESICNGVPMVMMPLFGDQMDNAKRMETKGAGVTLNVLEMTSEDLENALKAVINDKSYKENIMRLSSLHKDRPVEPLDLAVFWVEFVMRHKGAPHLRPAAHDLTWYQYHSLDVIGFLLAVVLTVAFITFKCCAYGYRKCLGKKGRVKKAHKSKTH
More on the design: […]; tissue Corning Life Sciences; method as in PMID 23230132. Particulars: human liver microsomes; read-out: Ki for inhibition of UGT1A9-mediated ethanol glucuronidation; cited from earlier work.

A further series has as its target T3, UGT1A1 (Homo sapiens, UniProt P22309).
T3 construct: […]; tissue Corning Life Sciences
T3 sequence (P22309 26-533): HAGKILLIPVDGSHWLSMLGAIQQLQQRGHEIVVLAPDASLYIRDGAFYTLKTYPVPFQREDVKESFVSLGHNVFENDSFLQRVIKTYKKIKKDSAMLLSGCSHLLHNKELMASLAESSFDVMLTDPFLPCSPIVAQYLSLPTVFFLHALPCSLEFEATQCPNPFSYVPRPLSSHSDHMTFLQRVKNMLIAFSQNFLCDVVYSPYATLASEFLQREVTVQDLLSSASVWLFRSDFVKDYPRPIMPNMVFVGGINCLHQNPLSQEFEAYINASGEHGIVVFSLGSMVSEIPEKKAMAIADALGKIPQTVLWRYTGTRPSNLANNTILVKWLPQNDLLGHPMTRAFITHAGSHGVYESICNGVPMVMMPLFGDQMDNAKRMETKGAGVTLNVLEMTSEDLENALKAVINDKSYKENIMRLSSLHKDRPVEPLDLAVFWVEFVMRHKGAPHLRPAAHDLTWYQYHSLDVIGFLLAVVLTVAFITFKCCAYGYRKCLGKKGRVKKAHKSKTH
As to the kind of experiment: biochemical. The format is in vitro ADME. The source says: (§1) 12.5 (Systat Software, Inc.; San Jose, CA, USA). […] 1.1 (Systat Software, Inc.).

The target in series [3] is T2, UGT1A9. Conditions: read-out: Ki for inhibition of UGT1A9 activities; recombinant and human liver microsomal UGT1A9; cited from earlier work.
Series [4] addresses T1, CYP3A4. More on the design: method as in PMID 22490230. Conditions: human liver microsomes; cited from earlier work.
The target of series [5] is T2, UGT1A9. Description: Inhibition of UGT1A9-catalyzed mycophenolic acid glucuronidation in human liver microsomes. The series is classed as in vitro ADME. On the set-up: […]; tissue Corning Life Sciences. Particulars: pooled human liver microsomes; 0.2 µM mycophenolic acid; without preincubation (●); read-out: IC50 UGT1A9 mycophenolic acid glucuronidation, without preincubation.
Excerpt: as §1

In another series the target is OATP1B3 (Homo sapiens, UniProt Q9NPD5).
Chain of OATP1B3 (Q9NPD5 whole entry): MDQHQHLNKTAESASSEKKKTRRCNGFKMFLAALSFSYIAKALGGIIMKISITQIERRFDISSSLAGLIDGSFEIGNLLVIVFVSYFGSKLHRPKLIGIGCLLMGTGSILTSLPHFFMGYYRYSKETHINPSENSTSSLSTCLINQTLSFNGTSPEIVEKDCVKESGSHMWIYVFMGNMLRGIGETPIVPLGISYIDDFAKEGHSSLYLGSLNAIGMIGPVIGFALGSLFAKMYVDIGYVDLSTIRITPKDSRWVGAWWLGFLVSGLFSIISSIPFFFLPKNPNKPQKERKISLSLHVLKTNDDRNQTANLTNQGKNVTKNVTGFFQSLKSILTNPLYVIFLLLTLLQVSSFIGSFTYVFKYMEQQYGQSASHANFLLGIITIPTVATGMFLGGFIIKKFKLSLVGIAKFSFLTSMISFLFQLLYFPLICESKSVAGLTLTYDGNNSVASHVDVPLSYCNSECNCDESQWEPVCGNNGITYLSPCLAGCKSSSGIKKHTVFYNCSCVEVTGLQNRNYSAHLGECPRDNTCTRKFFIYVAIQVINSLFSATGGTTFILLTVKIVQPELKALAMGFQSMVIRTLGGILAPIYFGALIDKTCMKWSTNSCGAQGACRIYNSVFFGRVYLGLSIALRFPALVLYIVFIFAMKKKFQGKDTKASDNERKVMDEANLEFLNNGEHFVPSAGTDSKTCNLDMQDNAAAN
The target of a further series is T4, OATP1B1 (Homo sapiens, UniProt Q9Y6L6).
T4 construct: host or cells: HEK293 (transient overexpression)
T4 sequence (Q9Y6L6 1-691): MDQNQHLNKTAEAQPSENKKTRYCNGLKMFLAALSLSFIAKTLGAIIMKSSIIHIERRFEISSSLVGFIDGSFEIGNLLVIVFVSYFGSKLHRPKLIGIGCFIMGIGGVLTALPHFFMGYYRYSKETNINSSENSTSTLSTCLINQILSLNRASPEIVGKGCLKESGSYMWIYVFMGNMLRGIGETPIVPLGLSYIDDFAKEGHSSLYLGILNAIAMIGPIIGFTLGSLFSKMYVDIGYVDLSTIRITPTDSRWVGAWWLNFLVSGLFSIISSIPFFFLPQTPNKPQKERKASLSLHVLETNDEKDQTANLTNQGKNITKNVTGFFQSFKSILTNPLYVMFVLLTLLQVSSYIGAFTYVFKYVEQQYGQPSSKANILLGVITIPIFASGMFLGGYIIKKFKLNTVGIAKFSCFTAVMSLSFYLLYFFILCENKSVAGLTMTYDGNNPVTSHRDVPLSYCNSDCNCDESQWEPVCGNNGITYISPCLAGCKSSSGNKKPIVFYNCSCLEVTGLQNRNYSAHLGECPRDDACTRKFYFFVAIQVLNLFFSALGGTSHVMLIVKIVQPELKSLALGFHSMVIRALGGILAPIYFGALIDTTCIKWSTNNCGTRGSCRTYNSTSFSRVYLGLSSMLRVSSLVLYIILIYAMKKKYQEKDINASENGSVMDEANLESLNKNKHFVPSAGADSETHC
As to the kind of experiment: Uptake of [3-H]estrone-3-sulfate in HEK293-OATP1B1 cells. Conditions: HEK293-OATP1B1 cells; 0.1 μM [3-H]estrone-3-sulfate; 5 min uptake. The series is classed as in vitro ADME. As for the experimental part:
To examine the effects of APINACA and typical inhibitors on transporter activity, the uptake of a probe substrate into HEK293 cells overexpressing the respective solute carrier transporters was measured in the presence of APINACA (final concentrations of 0–250 μM) or typical inhibitors for 5 min. The concentrations and probe substrates were selected as follows: 0.1 μM [3-H]MPP^+ (for OCT1 and OCT2), 0.1 μM [3-H]PAH (for OAT1), 0.1 μM [3-H]ES (for OAT3 and OATP1B1), and 0.1 μM [3-H]EG (for OATP1B3).
as §1

These results are taken from paper PMC6720883, “In Vitro Inhibitory Effects of APINACA on Human Major Cytochrome P450, UDP-Glucuronosyltransferase Enzymes, and Drug Transporters” (Molecules, 2019).

Read-outs that look alike come from different tables or passages of the source.

T1 sequence (P08684 2-503): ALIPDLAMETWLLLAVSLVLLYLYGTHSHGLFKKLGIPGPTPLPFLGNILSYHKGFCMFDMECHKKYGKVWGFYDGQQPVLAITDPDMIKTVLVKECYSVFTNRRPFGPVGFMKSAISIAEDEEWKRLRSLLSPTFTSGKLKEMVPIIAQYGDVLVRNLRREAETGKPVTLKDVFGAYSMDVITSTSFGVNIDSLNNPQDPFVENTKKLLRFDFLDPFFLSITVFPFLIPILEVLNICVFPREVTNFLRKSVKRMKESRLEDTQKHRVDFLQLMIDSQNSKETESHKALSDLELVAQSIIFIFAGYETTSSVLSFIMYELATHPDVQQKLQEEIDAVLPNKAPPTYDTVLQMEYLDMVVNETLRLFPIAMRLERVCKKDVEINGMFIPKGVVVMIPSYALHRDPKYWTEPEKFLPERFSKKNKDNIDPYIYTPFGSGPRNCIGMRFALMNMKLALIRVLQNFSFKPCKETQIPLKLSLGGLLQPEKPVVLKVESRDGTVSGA

With `Cc1ccc(C(=O)c2cn(CCCCCF)c3ccccc23)c2ccccc12` [MAM-2201], the Ki on CYP3A4 [1] (noncompetitive inhibition, read-out: Ki for noncompetitive inhibition of CYP3A4-catalyzed midazolam 1′-hydroxylation) was 5.4 µM. `C=C(C)[C@@H]1CCC(C)=C[C@H]1c1c(O)cc(CCCCC)cc1O` [cannabidiol]: on UGT1A9 [2], the inhibitory constant (Ki) was 9.9 µM. In the case of `CCc1ccc(C(=O)c2cn(CCCCCF)c3ccccc23)c2ccccc12` [EAM-2201], on CYP3A4 [1] (human liver microsomes), the “kinact for CYP3A4-catalyzed midazolam 1′-hydroxylation” value was 0.0250 min⁻¹. Take `COC(=O)N[C@H](C(=O)N[C@@H](Cc1ccccc1)[C@@H](O)CN(Cc1ccc(-c2ccccn2)cc1)NC(=O)[C@@H](NC(=O)OC)C(C)(C)C)C(C)(C)C` [atazanavir, reference compound]: the IC50 on UGT1A1 turned out to be 0.7 µM.

Consider `Cc1ccc([C@@H]2O[C@H](CO)[C@@H](O)[C@H](O)[C@H]2O)cc1Cc1ccc(-c2ccc(F)cc2)s1` [canagliflozin], for which, on UGT1A9 [3], the inhibition constant (Ki) was 1.4 to 3 µM. On to `CC[C@H]1OC(=O)[C@H](C)[C@@H](O[C@H]2C[C@@](C)(OC)[C@@H](O)[C@H](C)O2)[C@H](C)[C@@H](O[C@@H]2O[C@H](C)C[C@H](N(C)C)[C@H]2O)[C@](C)(OC)C[C@@H](C)C(=O)[C@H](C)[C@@H](O)[C@]1(C)O` [clarithromycin], for which the “inactivation efficiency (kinact/Ki) for time-dependent inhibition of CYP3A4” value on CYP3A4 [4] is 46.7 M⁻¹ s⁻¹. With `C=CCc1ccc(O)c(-c2cc(CC=C)ccc2O)c1` [magnolol, reference compound], the IC50 on UGT1A9 [5] stood at 9.7 µM.

For `O=C(c1cccc2ccccc12)c1cn(CCCCCF)c2ccccc12` [AM-2201], the Ki on CYP3A4 [1] (competitive inhibition, read-out: Ki for competitive inhibition of CYP3A4-catalyzed midazolam 1′-hydroxylation) is 4 µM. Consider `CO[C@H]1/C=C/O[C@@]2(C)Oc3c(C)c(O)c4c(O)c(c(/C=N/N5CCN(C)CC5)c(O)c4c3C2=O)NC(=O)/C(C)=C\C=C\[C@H](C)[C@H](O)[C@@H](C)[C@@H](O)[C@@H](C)[C@H](OC(C)=O)[C@@H]1C` [Rifampin, reference compound], for which the IC50 against OATP1B3 was 0.99 µM; against OATP1B1, 22.8 µM. As to `CNC(=O)c1cc(Oc2ccc(NC(=O)Nc3ccc(Cl)c(C(F)(F)F)c3)cc2)ccn1` [sorafenib], the Ki on UGT1A9 [3] is 0.7 µM. Regarding `CCOc1ccc(Cc2cc([C@@H]3O[C@H](CO)[C@@H](O)[C@H](O)[C@H]3O)ccc2Cl)cc1` [dapagliflozin], on UGT1A9 [3], the Ki is 11 to 15 µM.
